Residues, ends and D or L forms follow the SMILES beside them.
Test system: Healthy albino mice
Assay: Serum TG elevation inhibiting action at the time of in vivo lipid loading (olive oil)
Conditions: for Ratio of Increase in Blood TG Levels (%): blood collected 3 hours after
Method: Serum TG elevation inhibiting action at the time of in vivo lipid loading was examined on the three peptides of the invention inhibiting elevations of TG levels in blood (i.e., the peptide having the amino acid sequence of SEQ ID NO: 1 and the peptides Val-Thr-Leu and Val-Tyr-Pro synthesized by the method described in Example 4). Healthy albino mice (5-10 weeks old; body weight: about 20-30 g) were used in this experiment. To each mouse, 250 mg of olive oil and an aqueous solution of the above peptide were administered orally. Three hours thereafter, blood was collected under anesthesia with Nembutal. After separation of the blood, the TG level in blood was determined.

## CC(C)C[C@H](NC(=O)[C@@H](NC(=O)[C@@H](N)C(C)C)[C@@H](C)O)C(=O)O [Val--Thr--Leu, H-Val-Thr-Leu-OH] (H-Val-Thr-Leu-OH)
Dose 0.1 mg/mouse oral with 250 mg olive oil
  Ratio of Increase in Blood TG Levels (%): 30%
Dose 0.2 mg/mouse oral with 250 mg olive oil
  Ratio of Increase in Blood TG Levels (%): 33%
Dose 1.0 mg/mouse oral with 250 mg olive oil
  Ratio of Increase in Blood TG Levels (%): 73%
Dose 2.5 mg/mouse oral with 250 mg olive oil
  Ratio of Increase in Blood TG Levels (%): 76%
Dose 5.0 mg/mouse oral with 250 mg olive oil
  Ratio of Increase in Blood TG Levels (%): 79%
oral, mice loaded with 250 mg olive oil, blood TG after 3 hours
  ID50: Dose (mg/mouse) exhibiting 50% inhibition: 0.43 mg/mouse
Relative to the proteolysate (= 1), times
  Specific Activity: 65

From US6046168A, “Peptide inhibits blood triglyceride level” (Hankyu-Kyoei Bussan Co., Ltd., priority 1993, dated 2000)
